“And” between values parts separate entries of the source, which are not always exact repeats. Identical values can stand only once. Inconclusive results and toxic doses are left out.
Test system: B6C3F1 mice, Lewis lung carcinoma iv, survival T/C
Experiment: NCI In Vivo Anticancer Drug Screen. Data for tumor model Lewis Lung Carcinoma (intravenous) in B6C3F1 mice
Details: endpoint: median survival time, schedule: Q01DX009 (ip), higher = longer survival
Summary of the method: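 Mice carrying transplanted tumors received test compound; survival in the treated group was divided by that of the vehicle-treated control group to give the T/C value.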

[1] = dose: 1.25 mg/kg/injection, vehicle: saline
[2] = dose: 10.0 mg/kg/injection, vehicle: saline
[3] = dose: 12.5 mg/kg/injection, vehicle: saline
[4] = dose: 25.0 mg/kg/injection, vehicle: saline
[5] = dose: 50.0 mg/kg/injection, vehicle: saline
[6] = dose: 100.0 mg/kg/injection, vehicle: saline
[7] = dose: 200.0 mg/kg/injection, vehicle: saline
[8] = dose: 12.5 mg/kg/injection, vehicle: Klucel (hydroxypropylcellulose) (HPC)
[9] = dose: 25.0 mg/kg/injection, vehicle: Klucel (hydroxypropylcellulose) (HPC)
[10] = dose: 50.0 mg/kg/injection, vehicle: Klucel (hydroxypropylcellulose) (HPC)
[11] = dose: 100.0 mg/kg/injection, vehicle: Klucel (hydroxypropylcellulose) (HPC)
[12] = dose: 200.0 mg/kg/injection, vehicle: Klucel (hydroxypropylcellulose) (HPC)
[13] = dose: 400.0 mg/kg/injection, vehicle: Klucel (hydroxypropylcellulose) (HPC)
[14] = dose: 6.25 mg/kg/injection, vehicle: saline
[15] = dose: 3.12 mg/kg/injection, vehicle: Klucel (hydroxypropylcellulose) (HPC)
[16] = dose: 6.25 mg/kg/injection, vehicle: Klucel (hydroxypropylcellulose) (HPC)
[17] = dose: 6.25 mg/kg/injection, vehicle: water
[18] = dose: 25.0 mg/kg/injection, vehicle: saline with Tween-80
[19] = dose: 50.0 mg/kg/injection, vehicle: saline with Tween-80
[20] = dose: 100.0 mg/kg/injection, vehicle: saline with Tween-80
[21] = dose: 200.0 mg/kg/injection, vehicle: saline with Tween-80
[22] = dose: 400.0 mg/kg/injection, vehicle: saline with Tween-80
[23] = dose: 12.5 mg/kg/injection, vehicle: saline with Tween-80

With `O=NN(CCCl)C(=O)NC1[C@H](O)CCC[C@@H]1O` (some centres not stated) the T/C (dose: 0.32 mg/kg/injection, vehicle: saline) was 96 % of control, the T/C (dose: 0.63 mg/kg/injection, vehicle: saline) was 111 % of control and the T/C [1] was 103 % of control and 116 % of control. The T/C (dose: 5.0 mg/kg/injection, vehicle: saline) was 163 % of control and 173 % of control and the T/C [2] was 98 % of control and 118 % of control.

With `COC1CC(C)C(OC)C2=CC(=O)C=C(NC(=O)/C(C)=C/C=C\C(C)C(OC(N)=O)/C(C)=C\C(C)C1OC)C2=O` (configuration not stated) the T/C (dose: 5.0 mg/kg/injection, vehicle: saline + Tween-80 + alcohol) was 99 % of control and the T/C (dose: 10.0 mg/kg/injection, vehicle: saline + Tween-80 + alcohol) was 112 % of control.

`C[Si](C)(C)O/C=C1/CCOC1=O` was tested, and the T/C [3] was 93 % of control, the T/C [4] was 101 % of control and the T/C [5] was 94 % of control. For the same compound, the T/C [6] was 97 % of control, the T/C [7] was 91 % of control and the T/C (dose: 400.0 mg/kg/injection, vehicle: saline) was 94 % of control.

In the case of `C[Si](C)(C)OSc1ccccc1[N+](=O)[O-]`, the T/C [8] is reported as 120 % of control, the T/C [9] is reported as 110 % of control and the T/C [10] is reported as 102 % of control. The T/C [11] was 102 % of control, the T/C [12] was 102 % of control and the T/C [13] was 104 % of control.

With `NC1=NC(=O)N2CC12` (configuration not stated) the T/C [3] was 110 % of control, the T/C [4] was 110 % of control and the T/C [6] was 110 % of control. The T/C [7] was 109 % of control.

With `CC(C)NCC(O)COc1ccc(O)c(O)c1` (configuration not stated) the T/C [4] was 93 % of control and 96 % of control, the T/C [5] was 98 % of control and 100 % of control and the T/C [6] was 89 % of control and 96 % of control. For the same compound, the T/C [7] was 98 % of control.

In the case of `COc1cccc2c1C(=O)c1c(O)c3c(c(O)c1C2=O)C[C@@](O)(/C(C)=N\NC(=O)CO)C[C@@H]3OC1CC(N)C(O)C(C)O1` (some centres not stated), the T/C [14] is reported as 87 % of control.

For `O=NN(CCCl)C(=O)NC1CCC(=O)NC1=O` (configuration not stated), the T/C (dose: 1.0 mg/kg/injection, vehicle: saline with Tween-80) was 113 % of control, the T/C (dose: 4.0 mg/kg/injection, vehicle: saline with Tween-80) was 225 % of control and the T/C (dose: 8.0 mg/kg/injection, vehicle: saline with Tween-80) was 312 % of control. The T/C (dose: 16.0 mg/kg/injection, vehicle: saline with Tween-80) was 93 % of control.

For `CCCCCC[C@H]([C@H](C)O)n1cnc2c(N)ncnc21`, the T/C [15] was 88 % of control, the T/C [16] was 101 % of control and the T/C [8] was 114 % of control. For the same compound, the T/C [9] was 94 % of control, the T/C [10] was 109 % of control and the T/C [11] was 105 % of control.

`C=Cc1cnc([N+](=O)[O-])n1C` was tested, and the T/C [8] was 94 % of control, the T/C [9] was 90 % of control and the T/C [10] was 99 % of control. The T/C [11] was 92 % of control and the T/C [12] was 92 % of control.

For `COc1cccc2c1C(=O)c1c(O)c3c(c(O)c1C2=O)CC(O)(/C(C)=N/NC(=O)CCCCC(=O)N/N=C(\C)C1(O)Cc2c(O)c4c(c(O)c2C(OC2CC(N)C(O)C(C)O2)C1)C(=O)c1c(OC)cccc1C4=O)CC3OC1CC(N)C(O)C(C)O1` (configuration not stated), the T/C (dose: 1.5 mg/kg/injection, vehicle: water) was 120 % of control, the T/C (dose: 3.0 mg/kg/injection, vehicle: water) was 109 % of control and the T/C [17] was 117 % of control.

With `C=CCCC(=O)CCCC(=O)O[C@@H]1[C@@H]2[C@H](CC1(C)C)[C@H](O)[C@@]13O[C@@H]1[C@H](O)[C@@]1(CO1)[C@@]23C` the T/C (dose: 3.12 micrograms/kg/injection, vehicle: Klucel (hydroxypropylcellulose) (HPC)) was 113 % of control, the T/C (dose: 6.25 micrograms/kg/injection, vehicle: Klucel (hydroxypropylcellulose) (HPC)) was 98 % of control and the T/C (dose: 12.5 micrograms/kg/injection, vehicle: Klucel (hydroxypropylcellulose) (HPC)) was 97 % of control. The T/C (dose: 25.0 micrograms/kg/injection, vehicle: Klucel (hydroxypropylcellulose) (HPC)) was 94 % of control and the T/C (dose: 50.0 micrograms/kg/injection, vehicle: Klucel (hydroxypropylcellulose) (HPC)) was 110 % of control.

With `CC[C@@]1(O)C(=O)OCc2c1cc1n(c2=O)Cc2cc3cc(O)ccc3nc2-1` the T/C (dose: 0.18 mg/kg/injection, vehicle: saline) was 106 % of control, the T/C (dose: 0.37 mg/kg/injection, vehicle: saline) was 104 % of control and the T/C (dose: 0.75 mg/kg/injection, vehicle: saline) was 102 % of control. For the same compound, the T/C (dose: 1.5 mg/kg/injection, vehicle: saline) was 103 % of control and the T/C (dose: 3.0 mg/kg/injection, vehicle: saline) was 110 % of control.

In the case of `N=C1CCCS1`, the T/C [4] is reported as 117 % of control and the T/C [5] is reported as 122 % of control.

With `NC(CNC(=O)CBr)C(=O)O` (configuration not stated) the T/C [17] was 102 % of control, the T/C (dose: 12.5 mg/kg/injection, vehicle: water) was 95 % of control and the T/C (dose: 25.0 mg/kg/injection, vehicle: water) was 109 % of control. The T/C (dose: 50.0 mg/kg/injection, vehicle: water) was 109 % of control.

With `O=NN(CCCl)C(=O)NC1OC(CO)C(O)C(O)C1O` (configuration not stated) the T/C (dose: 2.0 mg/kg/injection, vehicle: saline) was 121 % of control.

With `O=C(NC1CCCCC1)OCc1c(COC(=O)NC2CCCCC2)c(-c2ccc(Cl)c(Cl)c2)n2c1CCC2` the T/C [18] was 100 % of control and 108 % of control, the T/C [19] was 102 % of control and 105 % of control and the T/C [20] was 95 % of control and 108 % of control. The T/C [21] was 106 % of control and 113 % of control and the T/C [22] was 110 % of control and 120 % of control.

For `CCOC(=O)c1[nH]c2cccc3c2c1CC(Br)C3=O` (configuration not stated), the T/C (dose: 12.0 mg/kg/injection, vehicle: saline with Tween-80) was 102 % of control, the T/C [18] was 100 % of control and the T/C [19] was 99 % of control.

For `COc1cc(C(=O)N/N=C/c2cccc([N+](=O)[O-])c2)cc(OC)c1OC`, the T/C [18] was 97 % of control, the T/C [19] was 98 % of control and the T/C [20] was 105 % of control. The T/C [21] was 93 % of control and the T/C [22] was 101 % of control.

`CN(C)P(=O)(Oc1ccccc1)N(C)C` was tested, and the T/C [23] was 113 % of control, the T/C [18] was 98 % of control and the T/C [19] was 101 % of control. The T/C [20] was 115 % of control, the T/C [21] was 101 % of control and the T/C [22] was 100 % of control.

For `C(C#CCN1CCOCC1)#CCN1CCOCC1`, the T/C [16] was 108 % of control, the T/C [8] was 101 % of control and the T/C [9] was 102 % of control. The T/C [10] was 100 % of control, the T/C [11] was 102 % of control and the T/C [13] was 106 % of control.

`COc1ccc(C(=O)C(CN(C)C)CN(C)C)cc1` was tested, and the T/C (dose: 1.56 mg/kg/injection, vehicle: saline) was 96 % of control, the T/C (dose: 3.12 mg/kg/injection, vehicle: saline) was 102 % of control and the T/C [14] was 102 % of control. For the same compound, the T/C [3] was 105 % of control and the T/C [4] was 105 % of control.

With `COC12C(COC(=O)NCCO)C3=C(C(=O)C(C)=C(N)C3=O)N1CC1NC12` (configuration not stated) the T/C [15] was 111 % of control and the T/C [16] was 102 % of control.

For `Oc1c(Cl)cc(Cl)cc1C=NCCSc1ccc(Cl)cc1`, the T/C [9] was 94 % of control and 105 % of control, the T/C [10] was 98 % of control and 101 % of control and the T/C [11] was 97 % of control and 101 % of control. The T/C [12] was 97 % of control and 105 % of control and the T/C [13] was 101 % of control.

For `Oc1c(Cl)cc(Cl)cc1C1N2CCCCC2C2c3cccn3-c3ccccc3N21` (configuration not stated), the T/C [8] was 106 % of control, the T/C [9] was 101 % of control and the T/C [10] was 104 % of control. The T/C [11] was 95 % of control and the T/C [12] was 102 % of control.

For `O=C(Nc1ccccc1C(=O)O)c1cc([N+](=O)[O-])cc([N+](=O)[O-])c1`, the T/C [23] was 96 % of control, the T/C [18] was 91 % of control and the T/C [19] was 102 % of control. For the same compound, the T/C [20] was 102 % of control and the T/C [21] was 95 % of control.

For `COc1c(C)c2c(c(O)c1C/C=C(\C)CCC(=O)O)C(=O)OC2`, the T/C [19] was 91 % of control, the T/C [20] was 91 % of control and the T/C [21] was 98 % of control.

For `C[PH+](C)C.C[PH+](C)C.[Au]`, the T/C (dose: 0.62 mg/kg/injection, vehicle: saline) was 97 % of control, the T/C [1] was 102 % of control and the T/C (dose: 2.5 mg/kg/injection, vehicle: saline) was 105 % of control. The T/C [2] was 109 % of control.

Reference: PubChem BioAssay AID276 (DTP/NCI, 2004)
